# Measurements reported in PubChem BioAssay AID2060910 (Molecular Pharmacology Branch, DTP, NCI, 2025).
# Test system: 242566-281-R-J2-PDC complex spheroid viability
# Assay: Anticancer human tumor 242566-281-R-J2-PDC patient-derived pancreatic carcinoma cell line growth inhibition [RAS]
# Settings: for IC50: curve of first compound; for viability, T/C: stronger effect = lower value
# Description: RAS pathway inhibitors in Combinations in Complex Spheroids
# A high-throughput screen of multi-cell type tumor spheroids was designed to identify active combinations of RAS pathway inhibitors and targeted small molecules. Complex spheroids include a stromal component modeled by human endothelial cells (HUVEC) and fibroblasts modeled by human mesenchymal stem cells (MSCs). The concentration ranges selected for each drug and investigational agent were based upon clinically achievable concentrations if the clinical Cmax of the agent was known.
# Compounds. The drugs and investigational agents: abemaciclib (NSC768073), cobimetinib (NSC768068), divarasib (GDC6063, NSC841802), docetaxel (NSC628503), GDC-1971 (RLY-1971, NSC841576), gemcitabine (NSC613327), inavolisib (NSC800729), ipatasertib (NSC767898), KB-0742 (NSC834161), MRTX-1133 (NSC836407), osimertinib (NSC779217), RMC-4630 (NSC839698), RMC-6236 (NSC851965), RMC-6291 (NSC852671), Ro-3306 (NSC812927), sapanisertib (NSC764658), SN-38 (NSC673596), staurosporine (NSC755774), SY5609 (NSC837396), and tovorafenib (DAY101, NSC766906), were obtained from the National Cancer Institute (NCI) Developmental Therapeutics Program Chemical Repository. The FDA-approved anticancer drug set is available from the NCI Developmental Therapeutics Program. […] The stock solutions were prepared in dimethyl sulfoxide (DMSO, Sigma-Aldrich, St. Louis, MO, cat. D2650) at 800-fold the tested concentration and stored at -70 degrees C prior to their use. All drugs and investigational agents were tested over a range starting from a high concentration at or near the clinical Cmax and decreasing in half-log increments. If the clinical Cmax for an agent had not been determined, the highest concentration tested was 10 microM.
# Cell Culture. All cells were maintained in an incubator at 37 degrees C and 5% CO2 with 95% humidity. The PDC lines were cultured according to standard operating procedures established by the NCI PDMR. All PDCs were thawed and cultured in Matrigel-coated flasks prepared with a working solution of 1X Ham's F-12 nutrient mix, without supplementation (Invitrogen, Waltham, MA, cat. 11765054), 100 U/mL penicillin-streptomycin (Invitrogen, cat. 15140122), and 2.5% Matrigel (Corning Inc., Corning, NY, cat. 354248) for the first three passages. The 362531-283-R-J2-PDC and 782815-120-R-J1-PDC lines were cultured in 6C/Colon 1B media, which includes advanced DMEM/F-12 (Thermo Fisher Scientific, cat. 12634028), 10 mM HEPES (Thermo Fisher Scientific, cat. 15630080), 1X GlutaMAX supplement (Thermo Fisher Scientific, cat. 35050061), 0.1 mg/mL primocin (InvivoGen, San Diego, CA, cat. ant-pm-2), 10% defined fetal bovine serum, heat inactivated (HyClone Laboratories Inc., Logan, UT, cat. SH30070.03HI), 50% L-WRN conditioned media (ATCC, cat. CRL-3276), 1.25 mM N-Acetyl-L-cysteine (Sigma-Aldrich, cat. A9165), 10 mM nicotinamide (Sigma-Aldrich, cat. N0636), 1X B-27 supplement (Thermo Fisher Scientific, cat. 17504044), 1X N-2 supplement (Thermo Fisher Scientific, cat. 17502048), 50 ng/mL human EGF (Thermo Fisher Scientific, cat. PHG0311), and 10 microM Y-27632 dihydrochloride (Tocris Bioscience, cat. 1254). The K12877-001-R-J1-PDC line was cultured in 6I media, which includes all 6C/Colon 1B media plus 10 ng/mL human FGF-10 (PeproTech, cat. 100-26), 1 ng/mL human FGF-2 (PeproTech, cat. 100-18B), 1 µM prostaglandin E2 (Tocris Bioscience, cat. 2296), […] hydrocortisone (Sigma-Aldrich, cat. H4001), and […] bovine insulin (Sigma-Aldrich, cat. I6634). The K86415-001-R-J1-PDC line was cultured in 6D media, which includes all 6C/Colon 1B media components minus the L-WRN conditioned media. The 485176-168-R4-J1-PDC was cultured in PANC media, which includes all 6C/Colon 1B media plus 100 ng/mL human FGF-10 (PeproTech, cat. 100-26), 500 nM SB-431542 (Selleckchem, cat. S1067), and 10 nM gastrin (Tocris Bioscience, cat. 3006). […]
# [1] = second compound 0.0316 µM, first compound 0.0316 µM
# [2] = second compound 0.0316 µM, first compound 0.1 µM
# [3] = second compound 0.0316 µM, first compound 0.316 µM
# [4] = second compound 0.0316 µM, first compound 1 µM
# [5] = second compound 0.0316 µM, first compound 3.16 µM
# [6] = second compound 0.0316 µM, first compound 10 µM
# [7] = second compound 0.1 µM, first compound 0.0316 µM
# [8] = second compound 0.1 µM, first compound 0.1 µM
# [9] = second compound 0.1 µM, first compound 0.316 µM
# [10] = second compound 0.1 µM, first compound 1 µM
# [11] = second compound 0.1 µM, first compound 3.16 µM
# [12] = second compound 0.1 µM, first compound 10 µM
# [13] = second compound 0.316 µM, first compound 0.0316 µM
# [14] = second compound 0.316 µM, first compound 0.1 µM
# [15] = second compound 0.316 µM, first compound 0.316 µM
# [16] = second compound 0.316 µM, first compound 1 µM
# [17] = second compound 0.316 µM, first compound 3.16 µM
# [18] = second compound 0.316 µM, first compound 10 µM
# [19] = second compound 1 µM, first compound 0.0316 µM
# [20] = second compound 1 µM, first compound 0.1 µM
# [21] = second compound 1 µM, first compound 0.316 µM
# [22] = second compound 1 µM, first compound 1 µM
# [23] = second compound 1 µM, first compound 3.16 µM
# [24] = second compound 1 µM, first compound 10 µM
# [25] = second compound 3.16 µM, first compound 0.0316 µM
# [26] = second compound 3.16 µM, first compound 0.1 µM
# [27] = second compound 3.16 µM, first compound 0.316 µM
# [28] = second compound 3.16 µM, first compound 1 µM
# [29] = second compound 3.16 µM, first compound 3.16 µM
# [30] = second compound 3.16 µM, first compound 10 µM
# [31] = second compound 10 µM, first compound 0.0316 µM
# [32] = second compound 10 µM, first compound 0.1 µM
# [33] = second compound 10 µM, first compound 0.316 µM
# [34] = second compound 10 µM, first compound 1 µM
# [35] = second compound 10 µM, first compound 3.16 µM
# [36] = second compound 10 µM, first compound 10 µM
# 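Also: spheroids exposed to compound for 7 days before readout.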
# 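For viability, T/C in this document: 100% = DMSO vehicle control wells.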
smiles,measurement,setting,value
Cc1nc(N2CCC3(CC2)COC(C)C3N)c(CO)nc1Sc1ccnc(N)c1Cl (stereo unspecified) + C#Cc1c(F)ccc2cc(O)cc(-c3ncc4c(N5CC6CCC(C5)N6)nc(OCC56CCCN5CC(F)C6)nc4c3F)c12,IC50,second compound 0.0316 µM,608 nM
same,IC50,second compound 0.1 µM,336 nM
same,IC50,second compound 0.316 µM,184 nM
same,IC50,second compound 1 µM,61.2 nM
same,IC50,second compound 3.16 µM,< 31.6 nM
same,IC50,second compound 10 µM,< 31.6 nM
same,"viability, T/C",[1],69.6%
same,"viability, T/C",[2],81%
same,"viability, T/C",[3],62.2%
same,"viability, T/C",[4],40.9%
same,"viability, T/C",[5],37.8%
same,"viability, T/C",[6],43.5%
same,"viability, T/C",[7],80.3%
same,"viability, T/C",[8],65.8%
same,"viability, T/C",[9],51.1%
same,"viability, T/C",[10],43%
same,"viability, T/C",[11],34.5%
same,"viability, T/C",[12],43%
same,"viability, T/C",[13],69.9%
same,"viability, T/C",[14],54.3%
same,"viability, T/C",[15],47.1%
same,"viability, T/C",[16],38.9%
same,"viability, T/C",[17],37%
same,"viability, T/C",[18],36.5%
same,"viability, T/C",[19],58.1%
same,"viability, T/C",[20],45.8%
same,"viability, T/C",[21],36.6%
same,"viability, T/C",[22],34.6%
same,"viability, T/C",[23],31.2%
same,"viability, T/C",[24],41.1%
same,"viability, T/C",[25],48.4%
same,"viability, T/C",[26],49.9%
same,"viability, T/C",[27],40.9%
same,"viability, T/C",[28],35.1%
same,"viability, T/C",[29],42.8%
same,"viability, T/C",[30],44.5%
same,"viability, T/C",[31],50%
same,"viability, T/C",[32],46.6%
same,"viability, T/C",[33],39.4%
same,"viability, T/C",[34],42.9%
same,"viability, T/C",[35],41.4%
same,"viability, T/C",[36],38.4%
NC1c2ccccc2OC12CCN(c1cnc3c(N4CCCc5ncccc54)n[nH]c3n1)CC2 (stereo unspecified) + C#Cc1c(F)ccc2cc(O)cc(-c3ncc4c(N5CC6CCC(C5)N6)nc(OCC56CCCN5CC(F)C6)nc4c3F)c12,IC50,second compound 0.0316 µM,163 nM
same,IC50,second compound 0.1 µM,52.4 nM
same,IC50,second compound 0.316 µM,< 31.6 nM
same,IC50,second compound 1 µM,< 31.6 nM
same,IC50,second compound 3.16 µM,< 31.6 nM
same,IC50,second compound 10 µM,< 31.6 nM
same,"viability, T/C",[1],72.3%
same,"viability, T/C",[2],56.2%
same,"viability, T/C",[3],41.6%
same,"viability, T/C",[4],33.1%
same,"viability, T/C",[5],29.7%
same,"viability, T/C",[6],22.9%
same,"viability, T/C",[7],52.3%
same,"viability, T/C",[8],49%
same,"viability, T/C",[9],36.8%
same,"viability, T/C",[10],28.4%
same,"viability, T/C",[11],34.1%
same,"viability, T/C",[12],20.3%
same,"viability, T/C",[13],40.6%
same,"viability, T/C",[14],43%
same,"viability, T/C",[15],36.1%
same,"viability, T/C",[16],35.7%
same,"viability, T/C",[17],31.8%
same,"viability, T/C",[18],17.3%
same,"viability, T/C",[19],32.2%
same,"viability, T/C",[20],37.8%
same,"viability, T/C",[21],36.3%
same,"viability, T/C",[22],29%
same,"viability, T/C",[23],34%
same,"viability, T/C",[24],18.7%
same,"viability, T/C",[25],35.2%
same,"viability, T/C",[26],38.1%
same,"viability, T/C",[27],39.5%
same,"viability, T/C",[28],33.7%
same,"viability, T/C",[29],34.9%
same,"viability, T/C",[30],16.2%
same,"viability, T/C",[31],38.1%
same,"viability, T/C",[32],36.9%
same,"viability, T/C",[33],39.6%
same,"viability, T/C",[34],33%
same,"viability, T/C",[35],35.5%
same,"viability, T/C",[36],10.4%
Nc1ccn(C2OC(CO)C(O)C2(F)F)c(=O)n1 (stereo unspecified) + C#Cc1c(F)ccc2cc(O)cc(-c3ncc4c(N5CC6CCC(C5)N6)nc(OCC56CCCN5CC(F)C6)nc4c3F)c12,IC50,second compound 0.0316 µM,86 nM
same,IC50,second compound 0.1 µM,201 nM
same,IC50,second compound 0.316 µM,180 nM
same,IC50,second compound 1 µM,10.2 nM
same,IC50,second compound 3.16 µM,3.16 nM
same,IC50,second compound 10 µM,< 3.16 nM
same,"viability, T/C","second compound 0.0316 µM, first compound 0.00316 µM",84.9%
same,"viability, T/C","second compound 0.0316 µM, first compound 0.01 µM",105%
same,"viability, T/C",[1],71.6%
same,"viability, T/C",[2],48.5%
same,"viability, T/C",[3],41.8%
same,"viability, T/C",[4],30.9%
same,"viability, T/C","second compound 0.1 µM, first compound 0.00316 µM",75.7%
same,"viability, T/C","second compound 0.1 µM, first compound 0.01 µM",88.7%
same,"viability, T/C",[7],70.6%
same,"viability, T/C",[8],54.7%
same,"viability, T/C",[9],51.6%
same,"viability, T/C",[10],39.8%
same,"viability, T/C","second compound 0.316 µM, first compound 0.00316 µM",64%
same,"viability, T/C","second compound 0.316 µM, first compound 0.01 µM",71.1%
same,"viability, T/C",[13],49.4%
same,"viability, T/C",[14],52.1%
same,"viability, T/C",[15],49.8%
same,"viability, T/C",[16],44%
same,"viability, T/C","second compound 1 µM, first compound 0.00316 µM",56.2%
same,"viability, T/C","second compound 1 µM, first compound 0.01 µM",55.5%
same,"viability, T/C",[19],40.8%
same,"viability, T/C",[20],41.4%
same,"viability, T/C",[21],45.7%
same,"viability, T/C",[22],41.9%
same,"viability, T/C","second compound 3.16 µM, first compound 0.00316 µM",38.6%
same,"viability, T/C","second compound 3.16 µM, first compound 0.01 µM",55.4%
same,"viability, T/C",[25],50.8%
same,"viability, T/C",[26],36.5%
same,"viability, T/C",[27],39%
same,"viability, T/C",[28],36.2%
same,"viability, T/C","second compound 10 µM, first compound 0.00316 µM",42.3%
same,"viability, T/C","second compound 10 µM, first compound 0.01 µM",53.9%
same,"viability, T/C",[31],48.9%
same,"viability, T/C",[32],38.3%
same,"viability, T/C",[33],34.1%
same,"viability, T/C",[34],30.7%
